Experimental data as given in patent US9963518B2, “Cyclic oligosaccharides for use in the treatment and prevention of bacterial infection” (priority 2011, dated 2018).
Where two headings read alike, the source gives them in different places.

How the values were obtained:
mutant Wza Y110G = mutant Wza Y110G (Escherichia coli, UniProt Q9X4B7, Y110G); assay: Single-channel electrical recording, mutant Wza Y110G; type: binding, E. coli; details: n = 3, read-out: Dissociation constant (Kd) with mutant Wza pore
Description: Thirteen commercial cyclodextrins (CDs) were tested for their ability to block WT-Wza and the mutant Y110G/K375C (Table 1) including, neutral, negatively charged or positively charged cyclodextrins. […]

mutant Wza Y110G/Y373C = mutant Wza Y110G/Y373C (Escherichia coli, UniProt Q9X4B7, Y110G/Y373C); assay: Single-channel electrical recording, mutant Wza Y110G/Y373C; type: binding, E. coli; details: 2M KCl buffer pH 7.5, +3 mV, n = 3, read-out: Dissociation constant (Kd) with mutant Wza pore
E. coli strain E69 [1] = assay: LPS exposure assay, O9a LPS to O9a LPS-specific antibodies (FACS); type: cell-based
Description: The direct effect of the inhibition of K30 CPS transport on E. coli strain E69 is the appearance of defects in the capsule layer. This should in turn lead to exposure of O9a LPS at the cell surface. To test this hypothesis, the attachment of rabbit anti-O9a antibodies was quantified by flow cytometry (FACS), by using secondary fluorescent anti-rabbit antibodies. The design of the experiment is depicted schematically in FIG. 4a.
E. coli strains E69 and CWG281 were grown as described above in Example 4 and the OD600 was adjusted to 0.4. The concentrations of cyclodextrin (either am8γCD (compound 13), am6αCD (compound 3) or am7βCD (compound 10)) present in the growth media were 10 nM, 100 nM, 1 μM, 10 μM, 50 μM, 100 μM and 1 mM. 50 μL samples of each were centrifuged at 3,000×g for 10 min to remove the medium, washed with PBS and resuspended in 50 μL PBS. O9a antiserum (0.5 μL) was then added. The mixtures were incubated on ice for 1 h (to compare the effects of am6αCD, am7βCD and am8γCD on the exposure of LPS) or 2 h (for the estimation of minimum effective concentration of am8γCD required to expose LPS to antibodies), followed by centrifugation at 3,000×g for 10 min and washing with PBS. The pellets were resuspended in PBS (50 μL), to which Alexa Fluor 488 Goat Anti-Rabbit IgG secondary antibody (1 μL, Life Technologies, A11034, λex 495 nm, λem 519 nm) was added, followed by incubation for 1 h on ice. The cells were then centrifuged at 3,000×g for 10 min. The pellets were resuspended in PBS (1 mL), followed by analysis by flow cytometry (FACS) using a Becton-Dickinson FACSCalibur. 10,000 cells were analysed for each sample. Fluorescence was measured in the FL1 channel (530 nm).

E. coli strain E69 [2] = assay: Complement-mediated killing of bacteria in human serum; type: cell-based; details: for Complement-mediated killing of E69: 40% normal human serum, 1 h, 37° C.
Description: This assay measured the killing of bacteria by the compounds of the invention mediated by the human complement system found in serum (incubation time 1 h, RPMI 1640, 37° C.). 10^3 cells of E. coli strain E69 or CWG281 were cultured in 40% (v/v) normal human serum (NHS, 1 mL, TCS Biosciences, CR100) or deactivated human serum (DHS) in RPMI 1640 medium (Sigma Aldrich, R8758) in 1.5 mL tubes in the presence of different concentrations of am8γCD (compound 13) at 37° C. for 1 h or 4 h. DHS was generated by heating NHS at 56° C. for 30 min. For the one-hour experiment, a portion of each culture (50 μL) was then spread onto a freshly prepared LB-Agar plate; for the four-hour experiment, the culture was firstly diluted 100 times (0, 1, 10, 40 μM), 10 times (100 μM) or not diluted (300 μM and 1 mM), and then a portion of each resulting culture (50 μL) was then spread onto a freshly prepared LB-Agar plate. The plates were incubated at 37° C. for 10 h after which colonies were counted. The total colonies of each sample were calculated by colonies/plate multiplying by times of dilution. P values were calculated from a one-tailed Student's t-test.

NC[C@H]1O[C@@H]2O[C@H]3[C@H](O)[C@@H](O)[C@@H](O[C@H]4[C@H](O)[C@@H](O)[C@@H](O[C@H]5[C@H](O)[C@@H](O)[C@@H](O[C@H]6[C@H](O)[C@@H](O)[C@@H](O[C@H]7[C@H](O)[C@@H](O)[C@@H](O[C@H]8[C@H](O)[C@@H](O)[C@@H](O[C@H]9[C@H](O)[C@@H](O)[C@@H](O[C@H]1[C@H](O)[C@H]2O)O[C@@H]9CN)O[C@@H]8CN)O[C@@H]7CN)O[C@@H]6CN)O[C@@H]5CN)O[C@@H]4CN)O[C@@H]3CN [No. 12, Octacis (6-amino-6-deoxy)-γ-cyclodextrin]
Kd (mutant Wza Y110G; 300 mM KCl, 5 mM HEPES, pH 7.5, +10 mV): 0.0056 ± 0.0024 µM
Kd (mutant Wza Y110G; 2M KCl buffer pH 7.5, +3 mV): 4.7 ± 4.6 µM
Kd (mutant Wza Y110G/Y373C): 570 ± 520 µM
LPS exposure by median fluorescence intensity (E. coli strain E69 [1]; 1 μM, antiserum incubation 2 h): 5.1%
LPS exposure by percentage of labelled cells (E. coli strain E69 [1]; 1 μM, antiserum incubation 2 h): 44%
LPS exposure by percentage of labelled cells (E. coli strain E69 [1]; 50 μM, antiserum incubation 1 h): 36%
LPS exposure by median fluorescence intensity (E. coli strain E69 [1]; 50 μM, antiserum incubation 1 h, relative to CWG281 positive control): 4.9%
LPS exposure by percentage of labelled cells (E. coli strain E69 [1]; 1 mM, antiserum incubation 1 h): 96%
LPS exposure by median fluorescence intensity (E. coli strain E69 [1]; 1 mM, antiserum incubation 1 h, relative to CWG281 positive control): 20%
Complement-mediated killing of E69 (E. coli strain E69 [2]; 15 μM): 21%
Complement-mediated killing of E69 (E. coli strain E69 [2]; 100 μM): 51%
Complement-mediated killing of E69 (E. coli strain E69 [2]; 1 mM): 84%
Growth of E69 (E. coli strain E69 [2]; 1 mM, normal human serum, incubation 4 h): completely inhibited the growth
EC50 (E. coli strain E69 [2]; Escherichia coli, E69, normal human serum, incubation 4 h, n=3, read-out: Concentration required to kill half of the bacteria (EC50)): 3.2 ± 0.5 µM
Effect on survival of E69 in the absence of NHS (E. coli strain E69 [2]; compound alone at 100 μM or 1 mM, no normal human serum): no significant effect
